Values joined by “and” are separate entries in the source; they are usually repeats but may differ in a detail not shown here. Identical values can stand only once.
Key:
[1] = tested on: primary mouse respiratory epithelial cells (ALI culture); assay: Bead movement in ALI culture of primary mouse respiratory epithelial cells; format: cell-based; settings: 500 μM ITA, Oxgr1+/+ vs Oxgr1–/–
Procedure: (§1) . When they reached full confluence, the cells were differentiated by exposure to air and cultured in a serum-free medium for 20 days. ALI culturing of primary human bronchial epithelium was performed following the manufacturer’s manual ([…] Technologies). Briefly, cells were maintained in PneumaCult-Ex Plus medium on a Transwell insert. Medium on the lateral side was switched to PneumaCult-ALI medium. The apical side of the Transwell membrane was then carefully washed with prewarmed Dulbecco’s PBS (DPBS). Cells were differentiated by exposure to air for 3 weeks. The medium was changed every 2 days.
(§2) For the measurement of bead movement in ALI culture, the apical side of the ALI culture inserts was washed with PBS 5 times to fully remove mucus. The inserts were transferred to HBSS buffer supplemented with 30 mM HEPES and the indicated ligand, and 20 μL bath buffer containing red fluorescent beads was added to the apical side. After 15 minutes of equilibration, bead movement was monitored with the BioTek Cytation 5 cell imaging system.

mouse OXGR1 = target: T1, mouse OXGR1 (Mus musculus, UniProt Q6IYF8); assay: Aequorin assay (calcium mobilization) in HEK293 cells overexpressing mouse OXGR1; format: cell-based; settings: aequorin assay, mOXGR1 in HEK293 cells; read-out: EC50
T1 construct: expressed in transfected cells; host or cells: HEK293
Procedure: (§3) Thirty-six hours after transfection, cells were maintained in serum-free medium for 12 hours and then loaded with 5 μM coelenterazine for 3 hours. Cells were trypsinized and resuspended at a density of 5 × 10^5 cells/mL in HBSS supplemented with 10 mM HEPES and 0.5% BSA. Cell suspensions of 100 μL were aliquoted into 96-well plates.

FLAG-tagged OXGR1 [2] = target: T2, FLAG-tagged OXGR1 (Homo sapiens, UniProt Q96P68); assay: Endocytosis assay of FLAG-tagged OXGR1 in HEK293 cells; format: cell-based; settings: WT OXGR1, within 10 minutes of ligand treatment
T2 construct: expressed in transfected cells
Procedure: (§4) For endocytosis assays, HEK293 cells stably expressing FLAG-OXGR1 were chilled on ice in DMEM medium supplemented with 30 mM HEPES for 10 minutes. […] Unbound antibody was then washed off with prechilled HBSS buffer. […] After ligand stimulation, cells were fixed and permeabilized. Subcellular localization of FLAG-tagged OXGR1 was detected using FITC-donkey anti-rabbit antibody (Invitrogen, Thermo Fisher Scientific), and nuclei were stained with DAPI (MilliporeSigma). Immunofluorescence images were captured with a Leica SP8 laser-scanning confocal microscope.

FLAG-tagged OXGR1 [3] = assay: as above; format: cell-based, human; settings: after ITA treatment
Procedure: as §4

[4] = tested on: primary human respiratory epithelial cells (ALI culture); assay: Bead movement in ALI culture of primary human bronchial epithelial cells; format: cell-based; settings: 500 μM ITA, OXGR1-dependent
Procedure: as §1, §2

[5] = tested on: primary human bronchial epithelial cells; assay: Calcium imaging (Fluo-4AM) of primary human bronchial epithelial cells; format: cell-based; settings: 0.5 mM ITA
Procedure: For calcium imaging of human primary bronchial epithelial cells, cells were infected with 2 CRISPR lentiviruses targeting OXGR1 and cultured for 2 days before calcium imaging. For calcium imaging of primary mouse cells, freshly isolated mouse tracheas were cut into rings, placed onto collagen-coated dishes, and cultured in DMEM supplemented with 10% FBS. Cells were loaded with 5 μM Fluo-4AM for 30 minutes in HBSS buffer, washed twice, and incubated for another 15 minutes for fully deesterification of Fluo-4AM. Cells loaded with Fluo-4AM were monitored with the BioTek Cytation 5 Cell imaging system every 300 ms for a total of 1.5 minutes after ligand administration. Fluorescence was quantified with ImageJ software (NIH).

[6] = tested on: respiratory epithelium mucin secretion; assay: Intranasal administration, mucin-containing cells in nasal cavity (Alcian blue/PAS); format: in vivo, mouse; settings: intranasal 500 μM ITA, 1 hour
Description: Harvested mouse skulls were fixed in 4% paraformaldehyde overnight and decalcified with 12% EDTA for 2 weeks. After full decalcification, the snoots were trimmed in between the incisor teeth and the first molar teeth. Trimmed tissues were embedded with paraffin, and sections were taken from the most proximal aspect of the nasal cavity. Mucin-containing epithelial cells distributed in the basement membrane of the nasal cavity floor and septum were visualized by Alcian blue/PAS staining and manually counted.

[7] = tested on: human OXGR1 orthosteric site mutants; assay: Aequorin assay in HEK293 cells expressing mutant human OXGR1; format: cell-based; settings: effect of mutation on ligand-stimulated calcium response
Procedure: as §3

human OXGR1 = human OXGR1 (Homo sapiens, UniProt Q96P68); assay: Fluo-4 assay in HEK293 cells expressing human OXGR1; format: cell-based; settings: Fluo-4 assay, hOXGR1 in HEK293 cells; read-out: EC50
Procedure: For the Fluo-4AM assay, OXGR1-expressing cells were loaded with 2 μM Fluo-4AM for 30 minutes at 37°C. Excess Fluo-4AM was then washed off with HBSS buffer. After incubation at 37°C for another 10 minutes, cells were transferred onto a 96-well plate.

human GPCRs = target: T3, human GPCRs (Homo sapiens, UniProt Q96P68); assay: Screen of 301 human GPCRs in transfected HEK293 cells (aequorin, Gα16 coexpression); format: cell-based; settings: 301 GPCRs, ligand final 0.625 mM; result for OXGR1
T3 construct: expressed in transfected cells; host or cells: HEK293
Description: In our search for the function and mechanism of secreted ITA, we noted the signaling of the GPCR proteins SUCNR1/GPR91 and OXGR1/GPR99, which sense the TCA metabolites succinate and α-KG, which are structurally similar to ITA ([27]). To test the hypothesis that ITA may similarly signal through a GPCR, we performed a screening of human GPCRs in transfected HEK293 cells and measured GPCR-dependent calcium mobilization (Figure 1E and Supplemental Figure 1; supplemental material available online with this article; https://doi.org/10.1172/JCI160463DS1). In order to allow more GPCRs to couple with the calcium pathway, we optimized the screening system by inducing coexpression of the promiscuous Gq family α subunit Gα16 ([34]). We examined 301 GPCRs that cover more than 70% of the nonolfactory GPCRs encoded by the human genome ([35]).
For the aequorin assay, HEK293 cells were transfected with aequorin plasmids (Addgene no. 78734), Gα16 plasmid, and GPCR plasmids. Thirty-six hours after transfection, cells were maintained in serum-free medium for 12 hours and then loaded with 5 μM coelenterazine for 3 hours. […] Ligands (100 μL, diluted to 1.25 mM in HBSS buffer, with a final concentration of 0.625 mM) were injected into plates, and luminance was recorded for 30 seconds using the BioTek Synergy H1 plate reader.

T1 sequence (Q6IYF8 whole entry): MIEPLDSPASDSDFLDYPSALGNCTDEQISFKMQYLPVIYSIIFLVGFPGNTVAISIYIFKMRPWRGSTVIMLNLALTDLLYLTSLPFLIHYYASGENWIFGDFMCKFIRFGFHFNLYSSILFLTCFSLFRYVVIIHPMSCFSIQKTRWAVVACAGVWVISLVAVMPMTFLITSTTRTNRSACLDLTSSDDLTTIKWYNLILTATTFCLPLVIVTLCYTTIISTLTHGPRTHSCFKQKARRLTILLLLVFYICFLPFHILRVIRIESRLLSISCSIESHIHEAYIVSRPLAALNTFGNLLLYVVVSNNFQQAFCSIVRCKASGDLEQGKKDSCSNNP

## C=C(CC(=O)O)C(=O)O [ITA, itaconate]
[1]
  movement of beads: could accelerate the movement of beads in an Oxgr1-dependent manner
Mouse OXGR1
  EC50: 416 µM and ~400 µM
FLAG-tagged OXGR1 [2]
  endocytosis of OXGR1: rapid endocytosis of OXGR1 was triggered
FLAG-tagged OXGR1 [3]
  endocytosis of R110A or R261A mutant OXGR1: did not undergo endocytosis
[4]
  movement of beads: accelerated the movement of beads
[5]; control cells
  calcium mobilization: robust calcium mobilization
[5]; sgOXGR1
  calcium mobilization after depletion of OXGR1: abolished by depletion of OXGR1
[6]
  mucin-containing cells in respiratory epithelium, Oxgr1+/+ mice: decrease of mucin-containing cells
  mucin-containing cells in respiratory epithelium, Oxgr1–/– mice: did not observe an effect
[7]
  calcium response, mutants C106A, R110A, H258A, R261A, I265A: completely abolished
  calcium response, mutants H114A, Y118F, I121A, I285A, R288A: dramatically impaired
Human OXGR1
  EC50: 221 ± 107 µM
Human GPCRs
  calcium mobilization in GPCR screen: the only receptor that showed robust and reproducible calcium mobilization

— paper PMC10014103, “The immunometabolite itaconate stimulates OXGR1 to promote mucociliary clearance during the pulmonary innate immune response” (The Journal of Clinical Investigation, 2023)
